Patent US8410170B2, “Use of isothiocyanates compounds in treating prostatic diseases and skin cancer” (Wuxi JC Pharmaceutical Technology Co., Ltd., priority 2005, dated 2013)

Legend:
[1] = test system: non-bacterial prostatitis; test: Therapeutic effects on non-bacterial prostatitis (Xiaozhiling injection into prostate); assay type: in vivo, SD rats; conditions: for Average of Body Weight / Average Volume of Prostate / Average Weight of Prostate / Inhibition of Organ-coefficient / Organ Coefficient: 5 weeks; for Bleeding: no. of animals with score 0 / Bleeding: no. of animals with score + / Bleeding: no. of animals with score ++ / Bleeding: no. of animals with score +++ / Chronic Inflammatory Infiltration: no. of animals with score 0 / Chronic Inflammatory Infiltration: no. of animals with score + / Chronic Inflammatory Infiltration: no. of animals with score ++ / Chronic Inflammatory Infiltration: no. of animals with score +++ / Congestion: no. of animals with score 0 / Congestion: no. of animals with score + / Congestion: no. of animals with score ++ / Congestion: no. of animals with score +++ / Edema: no. of animals with score 0 / Edema: no. of animals with score + / Edema: no. of animals with score ++ / Edema: no. of animals with score +++ / Fibrous Exudation: no. of animals with score 0 / Fibrous Exudation: no. of animals with score + / Fibrous Exudation: no. of animals with score ++ / Fibrous Exudation: no. of animals with score +++ / Histopathological score of prostatitis, Overall Average X ± SD / Hyperblastosis: no. of animals with score 0 / Hyperblastosis: no. of animals with score + / Hyperblastosis: no. of animals with score ++ / Hyperblastosis: no. of animals with score +++ / Inflammatory Infiltration: no. of animals with score 0 / Inflammatory Infiltration: no. of animals with score + / Inflammatory Infiltration: no. of animals with score ++ / Inflammatory Infiltration: no. of animals with score +++: 9 animals; for urine, 1 h Period / urine, 2 h Period / urine, 3 h Period: last dosing day
Method: Fifty-five male SD rats were randomly divided into 6 groups, 9 each, except the negative control group for which 10 animals were used. All animals from group 1 to 6 were anesthetized by injection of ketamine under sterile conditions and incised around 1.5 cm with a sterilized surgery scalpel at middle of abdomen. Animals in Group 1 were injected penicillin to prevent infection, and given distill water, 10 ml/kg, once a day, 5 times a week for 5 weeks. Groups from 2 to 6 injected 25% Xiaozhiling into left and right lobes of prostate, 0.1 ml for each lobe and sew the muscle and skin with #1 silk thread. The animals were then given penicillin to prevent infectious. Group 2 was served as negative control group in which animals were treated with distill water by gavage 24 hrs after the Xiaozhiling injection, once a day, 5 times a week for 5 weeks. Group 3 was served as positive control group in which animals were treated with GENURIN by gavage 24 hrs after the Xiaozhiling injection at dose of 60 mg/kg, once a day, 5 times a week (escaping weekend) for 5 weeks. […] On the last dosing day, urine samples from different groups that covered periods of 1, 2 and 3 hrs were collected.
Twenty-four hrs after the last dose, the animals were euthanized and weighed. Volume and weight of prostate were measured. The averages of the prostate weight/volume and organ coefficient (average weight of prostate/average of body weight) were calculated, and statistical analysis performed (t test).
Prostate tissues of animals from different groups were embedded with paraffin. The tissue sections were stained with H&E for histpathological examination by an anatomical pathologist.

Sp1 = target: T1, Sp1 (Homo sapiens, UniProt P08047); test: Mobility gel shift assay (EMSA) of Sp1-DNA binding; assay type: cell-based; conditions: AD cells exposed 24 hrs
T1 construct: endogenous in cells; host or cells: LNCaP AD cells, nuclear extract
Method: EMSA was performed according to modern technology. […] The extraction of nuclear proteins was performed as described previously (Wang, L. G., Liu, X. M., Kreis, W., and Budman, D. R. Down-regulation of prostate-specific antigen expression by finasteride through inhibition of complex formation between androgen receptor and steroid receptor-binding consensus in the promoter of the PSA gene in LNCaP cells. Cancer Res, 57: 714-719, 1997). Five μg of nuclear proteins was reacted for 30 minutes at room temperature with the [^32P]-labeled Sp1 oligonucleotide or their corresponding mutants oligonucleotide probe in binding buffer containing […] dIdC to increase the specificity of the reaction. The reaction mixtures were then subjected to electrophoresis in 8% native polyacrylamide gel(PAGE). The binding complexes were visualized by exposing the dried gel to X-ray film.

T1 sequence (P08047 whole entry): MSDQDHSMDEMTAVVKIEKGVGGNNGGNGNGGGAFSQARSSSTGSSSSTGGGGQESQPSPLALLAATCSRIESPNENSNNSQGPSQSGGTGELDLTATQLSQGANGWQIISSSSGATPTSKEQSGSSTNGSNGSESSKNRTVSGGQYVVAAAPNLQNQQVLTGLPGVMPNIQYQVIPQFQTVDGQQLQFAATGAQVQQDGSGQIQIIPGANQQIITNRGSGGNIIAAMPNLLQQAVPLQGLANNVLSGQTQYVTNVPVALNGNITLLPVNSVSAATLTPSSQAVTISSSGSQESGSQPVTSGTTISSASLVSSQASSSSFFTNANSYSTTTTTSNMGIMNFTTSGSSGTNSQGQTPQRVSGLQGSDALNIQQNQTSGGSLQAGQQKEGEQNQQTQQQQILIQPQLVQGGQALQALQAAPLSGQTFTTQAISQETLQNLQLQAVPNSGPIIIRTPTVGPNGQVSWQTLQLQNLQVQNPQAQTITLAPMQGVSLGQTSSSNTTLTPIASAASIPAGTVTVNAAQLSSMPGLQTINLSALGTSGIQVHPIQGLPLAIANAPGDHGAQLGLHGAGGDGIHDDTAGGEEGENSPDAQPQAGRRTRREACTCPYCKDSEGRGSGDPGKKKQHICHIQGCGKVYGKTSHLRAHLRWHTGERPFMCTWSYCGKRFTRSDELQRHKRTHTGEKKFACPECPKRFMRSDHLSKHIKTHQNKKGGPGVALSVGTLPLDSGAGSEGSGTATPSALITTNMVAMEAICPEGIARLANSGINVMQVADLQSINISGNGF

## S=C=NCCc1ccccc1 [PEITC, phenethyl isothiocyanate]
[1]; PEITC 1 mg/kg gavage (Example 13-11)
  Average of Body Weight: 377 ± 39.1 g
[1]; PEITC 1 mg/kg gavage
  Average Volume of Prostate: 0.78 ± 0.16 cm^3
  Average Weight of Prostate: 0.7 ± 0.15 g
  Inhibition of Organ-coefficient: 28.46%
  Organ Coefficient: 0.186 ± 0.03 %
[1]; PEITC 1 mg/kg
  Bleeding: no. of animals with score 0: 7
  Bleeding: no. of animals with score +: 2
  Bleeding: no. of animals with score ++: 0
  Bleeding: no. of animals with score +++: 0
  Chronic Inflammatory Infiltration: no. of animals with score 0: 9
  Chronic Inflammatory Infiltration: no. of animals with score +: 0
  Chronic Inflammatory Infiltration: no. of animals with score ++: 0
  Chronic Inflammatory Infiltration: no. of animals with score +++: 0
  Congestion: no. of animals with score 0: 3
  Congestion: no. of animals with score +: 6
  Congestion: no. of animals with score ++: 0
  Congestion: no. of animals with score +++: 0
  Edema: no. of animals with score 0: 3
  Edema: no. of animals with score +: 6
  Edema: no. of animals with score ++: 0
  Edema: no. of animals with score +++: 0
  Fibrous Exudation: no. of animals with score 0: 5
  Fibrous Exudation: no. of animals with score +: 4
  Fibrous Exudation: no. of animals with score ++: 0
  Fibrous Exudation: no. of animals with score +++: 0
  Histopathological score of prostatitis, Overall Average X ± SD: 1.83 ± 1.06
  Hyperblastosis: no. of animals with score 0: 7
  Hyperblastosis: no. of animals with score +: 2
  Hyperblastosis: no. of animals with score ++: 0
  Hyperblastosis: no. of animals with score +++: 0
  Inflammatory Infiltration: no. of animals with score 0: 9
  Inflammatory Infiltration: no. of animals with score +: 0
  Inflammatory Infiltration: no. of animals with score ++: 0
  Inflammatory Infiltration: no. of animals with score +++: 0
  urine, 1 h Period: 5.5 ± 1.0 mL
  urine, 2 h Period: 7.0 ± 0.7 mL
  urine, 3 h Period: 7.9 ± 1.0 mL
[1]; PEITC 1 mg/kg, FIG. 7.5
  congestion, edema, fibroid and leukocyte infiltration versus untreated prostatitis animals (slide): less severe
[1]; PEITC 2 mg/kg gavage (Example 13-11)
  Average of Body Weight: 360 ± 24.8 g
[1]; PEITC 2 mg/kg gavage
  Average Volume of Prostate: 0.82 ± 0.13 cm^3
  Average Weight of Prostate: 0.70 ± 0.12 g
  Inhibition of Organ-coefficient: 27.69%
  Organ Coefficient: 0.188 ± 0.03 %
[1]; PEITC 2 mg/kg
  Bleeding: no. of animals with score 0: 8
  Bleeding: no. of animals with score +: 1
  Bleeding: no. of animals with score ++: 0
  Bleeding: no. of animals with score +++: 0
  Chronic Inflammatory Infiltration: no. of animals with score 0: 8
  Chronic Inflammatory Infiltration: no. of animals with score +: 0
  Chronic Inflammatory Infiltration: no. of animals with score ++: 1
  Chronic Inflammatory Infiltration: no. of animals with score +++: 0
  Congestion: no. of animals with score 0: 4
  Congestion: no. of animals with score +: 5
  Congestion: no. of animals with score ++: 0
  Congestion: no. of animals with score +++: 0
  Edema: no. of animals with score 0: 6
  Edema: no. of animals with score +: 3
  Edema: no. of animals with score ++: 0
  Edema: no. of animals with score +++: 0
  Fibrous Exudation: no. of animals with score 0: 5
  Fibrous Exudation: no. of animals with score +: 4
  Fibrous Exudation: no. of animals with score ++: 0
  Fibrous Exudation: no. of animals with score +++: 0
  Histopathological score of prostatitis, Overall Average X ± SD: 2.16 ± 1.52
  Hyperblastosis: no. of animals with score 0: 7
  Hyperblastosis: no. of animals with score +: 2
  Hyperblastosis: no. of animals with score ++: 0
  Hyperblastosis: no. of animals with score +++: 0
  Inflammatory Infiltration: no. of animals with score 0: 6
  Inflammatory Infiltration: no. of animals with score +: 3
  Inflammatory Infiltration: no. of animals with score ++: 0
  Inflammatory Infiltration: no. of animals with score +++: 0
  urine, 1 h Period: 6.6 ± 2.1 mL
  urine, 2 h Period: 8.7 ± 1.7 mL
  urine, 3 h Period: 9.2 ± 2.7 mL
[1]; PEITC 4 mg/kg gavage (Example 13-11)
  Average of Body Weight: 370 ± 24.8 g
[1]; PEITC 4 mg/kg gavage
  Average Volume of Prostate: 0.78 ± 0.10 cm^3
  Average Weight of Prostate: 0.72 ± 0.16 g
  Inhibition of Organ-coefficient: 26.15%
  Organ Coefficient: 0.192 ± 0.03 %
[1]; PEITC 4 mg/kg
  Bleeding: no. of animals with score 0: 6
  Bleeding: no. of animals with score +: 3
  Bleeding: no. of animals with score ++: 0
  Bleeding: no. of animals with score +++: 0
  Chronic Inflammatory Infiltration: no. of animals with score 0: 9
  Chronic Inflammatory Infiltration: no. of animals with score +: 0
  Chronic Inflammatory Infiltration: no. of animals with score ++: 0
  Chronic Inflammatory Infiltration: no. of animals with score +++: 0
  Congestion: no. of animals with score 0: 7
  Congestion: no. of animals with score +: 2
  Congestion: no. of animals with score ++: 0
  Congestion: no. of animals with score +++: 0
  Edema: no. of animals with score 0: 5
  Edema: no. of animals with score +: 4
  Edema: no. of animals with score ++: 0
  Edema: no. of animals with score +++: 0
  Fibrous Exudation: no. of animals with score 0: 4
  Fibrous Exudation: no. of animals with score +: 4
  Fibrous Exudation: no. of animals with score ++: 1
  Fibrous Exudation: no. of animals with score +++: 0
  Histopathological score of prostatitis, Overall Average X ± SD: 1.72 ± 0.79
  Hyperblastosis: no. of animals with score 0: 9
  Hyperblastosis: no. of animals with score +: 0
  Hyperblastosis: no. of animals with score ++: 0
  Hyperblastosis: no. of animals with score +++: 0
  Inflammatory Infiltration: no. of animals with score 0: 7
  Inflammatory Infiltration: no. of animals with score +: 2
  Inflammatory Infiltration: no. of animals with score ++: 0
  Inflammatory Infiltration: no. of animals with score +++: 0
  urine, 1 h Period: 5.7 ± 2.2 mL
  urine, 2 h Period: 9.4 ± 1.5 mL
  urine, 3 h Period: 10.4 ± 1.9 mL
[1]; PEITC 4 mg/kg, FIG. 7.3
  histopathological scores versus untreated prostatitis animals (slide): less severe
Sp1
  binding activity to Sp1 specific oligonucleotide of nuclear proteins (EMSA): significantly reduced
